{"source": "patent US7291349B2", "about": "“Anti-dermatophytic preparation and use thereof” (priority 2003, dated 2007)", "tested_on": "Candida albicans MTCC1637", "assay": "Broth assay (two fold dilution method) of garlic extract in combination with essential oils", "format": "cell-based", "conditions": "Table 3", "experimental": "Following tables presents the results of evaluation of antifungal activities of water or solvent extracts of garlic in combinations with the essential oils. […] The combinations of essential oils and garlic extracts were made according to their MICs ([…]). […] But only selected oils viz. Mentha spicata van. […] The activity increased to several folds when these combinations were added to constituent of essential oil like menthyl acetate. […] The broth assay was carried out following the NCCLS documents published by National Committee for Clinical and Laboratory Standards (USA) and disc diffusion assay according to Bauer et al (Bauer et al, […], American Journal of Clinical Pathology, 45:493-496)."}
{"smiles": "CC(=O)OC1CC(C)CCC1C(C)C", "note": "(stereo not shown) [Menthyl acetate]", "values": [{"measurement": "FIC value", "setting": "garlic extract 1/1600", "result": 1.0}, {"measurement": "Fold enhancement on the basis of Reduction in the MIC of oil in combination", "setting": "garlic extract 1/1600", "result": 2}, {"measurement": "Type of Interaction", "setting": "garlic extract 1/1600", "result": "Indifference"}, {"measurement": "Reduction in the MIC of oil", "setting": "garlic extract 1/1600 in combination", "result": "1/1600"}, {"measurement": "FIC value", "setting": "garlic extract 1/3200", "result": 0.75}, {"measurement": "Fold enhancement on the basis of Reduction in the MIC of oil in combination", "setting": "garlic extract 1/3200", "result": 2}, {"measurement": "Type of Interaction", "setting": "garlic extract 1/3200", "result": "Additive"}, {"measurement": "Reduction in the MIC of oil", "setting": "garlic extract 1/3200 in combination", "result": "1/1600"}, {"measurement": "FIC value", "setting": "garlic extract 1/6400", "result": 0.625}, {"measurement": "Fold enhancement on the basis of Reduction in the MIC of oil in combination", "setting": "garlic extract 1/6400", "result": 2}, {"measurement": "Type of Interaction", "setting": "garlic extract 1/6400", "result": "Additive"}, {"measurement": "Reduction in the MIC of oil", "setting": "garlic extract 1/6400 in combination", "result": "1/1600"}, {"measurement": "MIC of essential oil/extract", "setting": "alone, dilution", "result": "1/800"}]}
